Results: patent EP0326418A1, “GRF analogs” (THE UPJOHN COMPANY, priority 1988, dated 1989)
Where two headings read alike, the source gives them in different places. Where a SMILES comes first, the peptide text is derived from it. Where no end group is shown, it is not given here. [ ]: non-standard residue; d: D form. The star is where a group is joined. Desaminotyrosyl = O=C(CCc1ccc(O)cc1)*; Cya = N[C@@H](CS(=O)(=O)O)C(=O)O

Experiments:
[1] = system: bovine anterior pituitary cell culture; format: cell-based; conditions: for potency (in words): summary of the bovine pituitary cell culture assays
meal-fed Holstein steers = assay: serum growth hormone (GH) response after intravenous injection in steers (Procedure B); format: in vivo; conditions: for serum growth hormone (GH) response, difference from Leu²⁷ bGRF(1-32)NH₂: compared with Leu²⁷ bGRF(1-32)NH₂; for area under the GH response curve: in comparison to bGRF(1-44)NH₂ (100%), first study; for relative growth hormone areas: in comparison to the standard bGRF(1-44)NH₂ (Area 100%), procedure B, second study
Text: The synthetic peptides prepared in Examples 1, 2 and 3 (Compounds 1, 2 and 3 respectively), bGRF(1-44)NH2 and […] bGRF(1-32)NH2 were also given to meal-fed Holstein steers by intravenous injection (Procedure B) and the serum growth hormone (GH) response evaluated. […] In comparison to bGRF(1-44)NH2 (100%), the area under the GH response curve was 122% for […] bGRF(1-32)NH2, 100% for Compound #1, 106% for Compound #2, and 111% for Compound #3. Holstein steers (265 +/- 5kg) were housed in individual stalls 18-20°C) and exposed to 16h light:8h darkness (lights on at 0400h). Steers are meal-fed once daily at 1000h and trained to consume their total daily feed intake in 2 h. The diet consisted of rolled corn plus a mineral/vitamin premix and alfalfa hay cubes fed at 160% maintenance energy requirements on a bodyweight basis. Steers gained approximately 0.75 kg/h/d. In a 5 x […] Latin Square design 10 steers were assigned randomly to receive the following treatments. (a) bGRF(1-44)NH2, (b) […] bGRF(1-32)NH2, (c) Compound #3, (d) Compound #1, and (e) Compound #2. The GRFs were dissolves in saline (10μg/ml) and administered at 3nM/100 kg bodyweight as single iv injection at 0800 h, 2 h between feeding. A cannula was inserted into a jugular vein at least one day before treatment. Blood (6 ml) was collected at 20-min interval from 40 min before until 120 min after injection with additional samples collected at 5, 10 and 15 min after injection. Serum obtained from the samples was assayed from GH concentration. The number of steers responding to injection fo the various GRFs tested (P=0.42) ranged from 9 of 10 to 10 of 10 depending on the treatment. Using procedure B, compounds were tested for growth hormone release in steers. In comparison to the standard bGRF(1-44)NH2 (Area 100%), the test compounds gave the following relative growth hormone areas: Compound 4, 233%; compound 5, 140%; compound 6, 160%; compound 7, 126%; compound 8, 307%; compound 9, 260%; and compound 11, 173%.

[2] = proteolytic stability in bovine plasma (HPLC, modified Frohman method); conditions: for remaining at 1 h: bovine plasma; for proteolytic stability in bovine plasma (in words): summary
[3] = first assay, potency as a fraction of bGRF(1-44)NH₂
[4] = subsequent assay, potency as a fraction of bGRF(1-44)NH₂
[5] = 3nM/100 kg bodyweight, single iv injection

Molecule	remaining at 1 h [2] [%]	proteolytic stability in bovine plasma (in words) [2]	the potency of bGRF(1-44)NH₂ [1, 3]	the potency of bGRF(1-44)NH₂ [1, 4]	serum growth hormone (GH) response, difference from Leu²⁷ bGRF(1-32)NH₂ (meal-fed Holstein steers; [5])	area under the GH response curve (meal-fed Holstein steers; [5]) [%]	the potency of bGRF(1-44)NH₂ [1]	relative growth hormone areas (meal-fed Holstein steers) [%]	potency (in words) [1]	serum growth hormone (GH) response, difference from bGRF(1-44)NH₂ (meal-fed Holstein steers; 3nM/100 kg bodyweight, single iv injection, compared with bGRF(1-44)NH₂)
CC[C@H](C)[C@H](NC(=O)[C@H](C)NC(=O)[C@H](CS(=O)(=O)O)NC(=O)[C@@H](C)NC(=O)[C@@H](N)Cc1ccc(O)cc1)C(=O)N[C@@H](Cc1ccccc1)C(=O)N[C@H](C(=O)N[C@@H](CC(N)=O)C(=O)N[C@@H](CO)C(=O)N[C@@H](Cc1ccc(O)cc1)C(=O)N[C@@H](CCCNC(=N)N)C(=O)N[C@@H](CCCCN)C(=O)N[C@H](C(=O)N[C@@H](CC(C)C)C(=O)NCC(=O)N[C@@H](CCC(N)=O)C(=O)N[C@@H](CC(C)C)C(=O)N[C@@H](CO)C(=O)N[C@@H](C)C(=O)N[C@@H](CCCNC(=N)N)C(=O)N[C@@H](CCCCN)C(=O)N[C@@H](CC(C)C)C(=O)N[C@@H](CC(C)C)C(=O)N[C@@H](CCC(N)=O)C(=O)N[C@@H](CC(=O)O)C(=O)N[C@H](C(=O)N[C@@H](CC(C)C)C(=O)N[C@@H](CC(N)=O)C(=O)N[C@@H](CCCNC(=N)N)C(=O)N[C@@H](CCC(N)=O)C(=O)N[C@@H](CCC(N)=O)C(=O)NCC(N)=O)[C@@H](C)CC)C(C)C)[C@@H](C)O [Compound 4, D-Ala², Cya³, Leu²⁷-bGRF(1-32)NH₂] (H-Y[dA][Cya]AIFTNSYRKVLGQLSARKLLQDILNRQQG-NH2)	76	–	–	–	–	–	0.29	233	–	–
CC[C@H](C)[C@H](NC(=O)[C@H](C)NC(=O)[C@H](CS(=O)(=O)O)NC(=O)[C@H](C)NC(=O)CCc1ccc(O)cc1)C(=O)N[C@@H](Cc1ccccc1)C(=O)N[C@H](C(=O)N[C@@H](CC(N)=O)C(=O)N[C@@H](CO)C(=O)N[C@@H](Cc1ccc(O)cc1)C(=O)N[C@@H](CCCNC(=N)N)C(=O)N[C@@H](CCCCN)C(=O)N[C@H](C(=O)N[C@@H](CC(C)C)C(=O)N[C@@H](C)C(=O)N[C@@H](CCC(N)=O)C(=O)N[C@@H](CC(C)C)C(=O)N[C@@H](CO)C(=O)N[C@@H](C)C(=O)N[C@@H](CCCNC(=N)N)C(=O)N[C@@H](CCCCN)C(=O)N[C@@H](CC(C)C)C(=O)N[C@@H](CC(C)C)C(=O)N[C@@H](CCC(N)=O)C(=O)N[C@@H](CC(=O)O)C(=O)N[C@H](C(=O)N[C@@H](CC(C)C)C(=O)N[C@@H](CC(N)=O)C(=O)N[C@@H](CCCNC(=N)N)C(=O)N[C@@H](CCC(N)=O)C(=O)N[C@@H](CCC(N)=O)C(=O)NCC(N)=O)[C@@H](C)CC)C(C)C)[C@@H](C)O [Compound 9, Desamino-Tyr¹, Cya³, Ala¹⁵, Leu²⁷-bGRF(1-32)NH₂] (Desaminotyrosyl-A[Cya]AIFTNSYRKVLAQLSARKLLQDILNRQQG-NH2)	81	good stability	–	2.24	–	–	–	260	high potency	–
CC[C@H](C)[C@H](NC(=O)[C@H](C)NC(=O)[C@H](CS(=O)(=O)O)NC(=O)[C@@H](C)NC(=O)[C@@H](N)Cc1c[nH]cn1)C(=O)N[C@@H](Cc1ccccc1)C(=O)N[C@H](C(=O)N[C@@H](CC(N)=O)C(=O)N[C@@H](CO)C(=O)N[C@@H](Cc1ccc(O)cc1)C(=O)N[C@@H](CCCNC(=N)N)C(=O)N[C@@H](CCCCN)C(=O)N[C@H](C(=O)N[C@@H](CC(C)C)C(=O)N[C@@H](C)C(=O)N[C@@H](CCC(N)=O)C(=O)N[C@@H](CC(C)C)C(=O)N[C@@H](CO)C(=O)N[C@@H](C)C(=O)N[C@@H](CCCNC(=N)N)C(=O)N[C@@H](CCCCN)C(=O)N[C@@H](CC(C)C)C(=O)N[C@@H](CC(C)C)C(=O)N[C@@H](CCC(N)=O)C(=O)N[C@@H](CC(=O)O)C(=O)N[C@H](C(=O)N[C@@H](CC(C)C)C(=O)N[C@@H](CC(N)=O)C(=O)N[C@@H](CCCNC(=N)N)C(=O)N[C@@H](CCC(N)=O)C(=O)N[C@@H](CCC(N)=O)C(=O)NCC(N)=O)[C@@H](C)CC)C(C)C)[C@@H](C)O [Compound 11, His¹, D-Ala², Cya³, Ala¹⁵, Leu²⁷-bGRF(1-32)NH₂] (H-H[dA][Cya]AIFTNSYRKVLAQLSARKLLQDILNRQQG-NH2)	86	–	–	–	–	–	0.28	173	–	–
Cya²⁵, Leu²⁷bGRF(1-32)NH₂ [Compound 1]	–	–	0.53	–	No significant differences	100	–	–	–	–

The next lines start with results.

remaining at 1 h [2] [%]	proteolytic stability in bovine plasma (in words) [2]	Molecule	the potency of bGRF(1-44)NH₂ [1, 3]	the potency of bGRF(1-44)NH₂ [1, 4]	serum growth hormone (GH) response, difference from Leu²⁷ bGRF(1-32)NH₂ (meal-fed Holstein steers; [5])	area under the GH response curve (meal-fed Holstein steers; [5]) [%]	the potency of bGRF(1-44)NH₂ [1]	relative growth hormone areas (meal-fed Holstein steers) [%]	potency (in words) [1]	serum growth hormone (GH) response, difference from bGRF(1-44)NH₂ (meal-fed Holstein steers; 3nM/100 kg bodyweight, single iv injection, compared with bGRF(1-44)NH₂)
42	–	CC[C@H](C)[C@H](NC(=O)[C@H](C)NC(=O)[C@H](CS(=O)(=O)O)NC(=O)[C@H](C)NC(=O)[C@@H](N)Cc1ccc(O)cc1)C(=O)N[C@@H](Cc1ccccc1)C(=O)N[C@H](C(=O)N[C@@H](CC(N)=O)C(=O)N[C@@H](CO)C(=O)N[C@@H](Cc1ccc(O)cc1)C(=O)N[C@@H](CCCNC(=N)N)C(=O)N[C@@H](CCCCN)C(=O)N[C@H](C(=O)N[C@@H](CC(C)C)C(=O)NCC(=O)N[C@@H](CCC(N)=O)C(=O)N[C@@H](CC(C)C)C(=O)N[C@@H](CO)C(=O)N[C@@H](C)C(=O)N[C@@H](CCCNC(=N)N)C(=O)N[C@@H](CCCCN)C(=O)N[C@@H](CC(C)C)C(=O)N[C@@H](CC(C)C)C(=O)N[C@@H](CCC(N)=O)C(=O)N[C@@H](CC(=O)O)C(=O)N[C@H](C(=O)N[C@@H](CC(C)C)C(=O)N[C@@H](CC(N)=O)C(=O)N[C@@H](CCCNC(=N)N)C(=O)N[C@@H](CCC(N)=O)C(=O)N[C@@H](CCC(N)=O)C(=O)NCC(N)=O)[C@@H](C)CC)C(C)C)[C@@H](C)O [Compound 3, Cya³, Leu ²⁷bGRF(1-32)NH₂] (H-YA[Cya]AIFTNSYRKVLGQLSARKLLQDILNRQQG-NH2)	0.31	0.41	No significant differences	111	–	–	–	–
69	–	CC[C@H](C)[C@H](NC(=O)[C@H](C)NC(=O)[C@H](CS(=O)(=O)O)NC(=O)[C@@H](C)NC(=O)[C@@H](N)Cc1c[nH]cn1)C(=O)N[C@@H](Cc1ccccc1)C(=O)N[C@H](C(=O)N[C@@H](CC(N)=O)C(=O)N[C@@H](CO)C(=O)N[C@@H](Cc1ccc(O)cc1)C(=O)N[C@@H](CCCNC(=N)N)C(=O)N[C@@H](CCCCN)C(=O)N[C@H](C(=O)N[C@@H](CC(C)C)C(=O)NCC(=O)N[C@@H](CCC(N)=O)C(=O)N[C@@H](CC(C)C)C(=O)N[C@@H](CO)C(=O)N[C@@H](C)C(=O)N[C@@H](CCCNC(=N)N)C(=O)N[C@@H](CCCCN)C(=O)N[C@@H](CC(C)C)C(=O)N[C@@H](CC(C)C)C(=O)N[C@@H](CCC(N)=O)C(=O)N[C@@H](CC(=O)O)C(=O)N[C@H](C(=O)N[C@@H](CC(C)C)C(=O)N[C@@H](CC(N)=O)C(=O)N[C@@H](CCCNC(=N)N)C(=O)N[C@@H](CCC(N)=O)C(=O)N[C@@H](CCC(N)=O)C(=O)NCC(N)=O)[C@@H](C)CC)C(C)C)[C@@H](C)O [Compound 7, His¹, D-Ala², Cya³, Leu²⁷-bGRF(1-32)NH₂] (H-H[dA][Cya]AIFTNSYRKVLGQLSARKLLQDILNRQQG-NH2)	–	–	–	–	0.06	126	–	–
95	good stability	CC[C@H](C)[C@H](NC(=O)[C@H](C)NC(=O)[C@H](CS(=O)(=O)O)NC(=O)[C@@H](C)NC(=O)[C@@H](N)Cc1ccc(O)cc1)C(=O)N[C@@H](Cc1ccccc1)C(=O)N[C@H](C(=O)N[C@@H](CC(N)=O)C(=O)N[C@@H](CO)C(=O)N[C@@H](Cc1ccc(O)cc1)C(=O)N[C@@H](CCCNC(=N)N)C(=O)N[C@@H](CCCCN)C(=O)N[C@H](C(=O)N[C@@H](CC(C)C)C(=O)N[C@@H](C)C(=O)N[C@@H](CCC(N)=O)C(=O)N[C@@H](CC(C)C)C(=O)N[C@@H](CO)C(=O)N[C@@H](C)C(=O)N[C@@H](CCCNC(=N)N)C(=O)N[C@@H](CCCCN)C(=O)N[C@@H](CC(C)C)C(=O)N[C@@H](CC(C)C)C(=O)N[C@@H](CCC(N)=O)C(=O)N[C@@H](CC(=O)O)C(=O)N[C@H](C(=O)N[C@@H](CC(C)C)C(=O)N[C@@H](CC(N)=O)C(=O)N[C@@H](CCCNC(=N)N)C(=O)N[C@@H](CCC(N)=O)C(=O)N[C@@H](CCC(N)=O)C(=O)NCC(N)=O)[C@@H](C)CC)C(C)C)[C@@H](C)O [Compound 8, D-Ala², Cya³, Ala¹⁵, Leu²⁷-bGRF(1-32)NH₂] (H-Y[dA][Cya]AIFTNSYRKVLAQLSARKLLQDILNRQQG-NH2)	–	–	–	–	1.34	307	high potency	–
47	–	YADAIFTNSYRKVLGQLSARKLLQDILNRQQG-NH2 [Leu²⁷ bGRF(1-32)NH₂, reference compound]	–	–	–	122	–	–	–	No significant differences
